# Laboratory results from US4233304A, “Pyridoxine derivatives” (Crinos Industria Farmacobiologica S.p.A., priority 1978, dated 1980).
# Legend:
# in vivo = details: rat, po
# Procedure: The ulcer-causing activity has been determined by administering the substances per os to rats which have fasted 18 hours and evaluating the presence of gastric lesions 7 hours after the treatment. The UD50 has been determined according to Litchfield and Wilcoxon (J. Pharmacol. Exp. Ther. 96, 99, 1949).
# [1] = Analgesic activity, test of Randall and Selitto; assay type: in vivo; details: rat, variation from algogenic stimulus vs controls
# Procedure: Test of Randall and Selitto (Arch. Ing. Pharmacodyn., 111, 409, 1957) on the rat. The analgesic activity is expressed as a percent variation from the algogenic stimulus, after 3 and 5 hours with respect to the controls.
# [2] = Acute toxicity per os, single dose, LD50; details: mouse, in vivo, po
# Procedure: The acute toxicity has been determined by administering the substances per os in a sole dose to the mouse after 18 hours of fasting. The LD50 has been determined according to Litchfield and Wilcoxon (J. Pharmacol. Exp. Ther. 96, 99, 1949).
# [3] = Anti-inflammatory activity, caraganin-edema test according to Winter et al; assay type: in vivo; details: rat, vs controls
# From the text: As referred above, the inventive compound of the instant invention show anti-inflammatory activity and moreover may show, although not necessarily, also analgesic and/or anti-pyretic activity. The anti-inflammatory activity of the novel compounds of the instant invention has been confirmed by means of the caraganin-edema test on the rat.
# Caraganin-edema test according to Winter et al (Proc. Soc. Exp. Biol. Med., 111, 544, 1962) in the normal rat. […]
# mouse = details: footnote (1) Adams S.S. et al., Tox. Appl. Pharmacol., 15, 310, 1969; cited from earlier work
SMILES,TD50 at 7 h (in vivo) [mg/kg],"Analgesic activity Variation ([1]; 12.5 mg/kg per os, 3 hrs)","Analgesic activity Variation ([1]; 12.5 mg/kg per os, 5 hrs)","Analgesic activity Variation ([1]; 50 mg/kg per os, 3 hrs)","Analgesic activity Variation ([1]; 50 mg/kg per os, 5 hrs)",LD50 [2] [mg/kg],"Anti-inflammatory Inhibition ([3]; 6.25 mg/kg per os, 3 hrs) [%]","Anti-inflammatory Inhibition ([3]; 6.25 mg/kg per os, 5 hrs) [%]","Anti-inflammatory Inhibition ([3]; 12.5 mg/kg per os, 3 hrs) [%]","Anti-inflammatory Inhibition ([3]; 12.5 mg/kg per os, 5 hrs) [%]","Anti-inflammatory Inhibition ([3]; 25 mg/kg per os, 3 hrs) [%]","Anti-inflammatory Inhibition ([3]; 25 mg/kg per os, 5 hrs) [%]","Anti-inflammatory Inhibition ([3]; 50 mg/kg per os, 3 hrs) [%]","Anti-inflammatory Inhibition ([3]; 50 mg/kg per os, 5 hrs) [%]",LD50 per os/mouse (mouse) [mg/kg],"Anti-inflammatory Inhibition ([3]; 100 mg/kg per os, 3 hrs) [%]","Anti-inflammatory Inhibition ([3]; 100 mg/kg per os, 5 hrs) [%]"
Cc1ncc(COC(=O)C(C)c2ccc(CC(C)C)cc2)c(CO)c1O (stereo not drawn) [2-(4-isobutyl-phenyl)-propionic pyridoxine 5-ester],365,+61.2%,+71.4%,+129.6%,+134.3%,> 2000,27.1,24.8,41.1,28.4,48.6,37.6,55.1,42,,,
"CC(C)Cc1ccc(C(C)C(=O)O)cc1 (stereo not drawn) [2-(4-isobutylphenyl)-propionic acid, reference compound]",38,+86.7%,+83.8%,+146.9%,+69.5%,,,,33.6,16.5,43.9,19.3,54.2,26.6,800,49.5,32.1
Cc1ncc(COC(=O)C(C)c2ccc(CC(C)C)cc2)c2c1OC(C)(C)OC2 (stereo not drawn) [2-(4-isobutylphenyl)-propionic isopropylidenepyridoxine 5-ester],> 400,+77.5%,+39.0%,+122.5%,+78.1%,> 2200,,,19.6,18.3,13.1,12.8,43.9,39.4,,60.7,42.2
